Columns and labels:
RAW264.7 macrophages = assay: Cell viability (MTT) assay with LPS/PGD2, RAW264.7; assay type: cell-based, mouse
Procedure: The cell lines of RAW 264.7 macrophages and mouse leukemia mononuclear macrophages were purchased from ATCC (Manassas, Va.), and cultured in RPMI-1640 medium containing penicillin (100 U/ml), streptomycin (100 μg/ml) and 10% fetal bovine serum. RAW264.7 macrophage is an excellent model for screening anti-inflammatory drugs and evaluating the inhibitor pathways that stimulated the production of pro-inflammatory cytokines and enzymes. MTT was used to determine the cytotoxicity of CT-NA alone and its combination with PGD2 and LPS on RAW264.7 macrophages and isolated peritoneal macrophages according to the manufacturer's protocol. Briefly, RAW 264.7 macrophages were plated in a 96-well plate at a concentration of 4×10^5 cells/ml for 12 hrs, and then exposed to CT-NA (0-200 μM) at 37° C. for 1 hour. Next, RAW 264.7 macrophages were further exposed to LPS (100 ng/ml) and PGD2 (10 μM) for 24 hrs, and then treated with MTT (5 mg/ml) at 37° C. for 4 hrs. Then, the supernatant of each well was replaced with DMSO (200 μl/well), and the absorbance was measured at 570 nm.

LPS-induced ALI mice [1] = assay: LPS-induced ALI model: pulmonary vascular permeability by Evans blue dye; assay type: in vivo, Balb/c mice; settings: CT-NA 10 mg/kg (P<0.05) or 30 mg/kg (P<0.01), Dex 1 mg/kg (P<0.01)
Procedure: (§1) Evans Blue was a dye that could quickly bind to albumin and was remains restricted within blood vessels because the endothelium was impermeable to albumin under normal physiological conditions. Pulmonary microvascular permeability was assessed by measuring the extravasation of Evans blue dye in the lungs. The method was briefly described as follows. The mice were randomly divided into control group (12 mice) and LPS group (48 mice). The LPS group (48 mice) was further divided into four subgroups (each subgroup contains 12 mice). To measure pulmonary microvascular permeability, the unanaesthetized mice of LPS group received intragastric instillation of NS, CT-NA at 10 mg/kg or 30 mg/kg, or Dex at 1 mg/kg respectively. One hour later, the anaesthetized mice were intratracheally instilled with NS (control group) and LPS (all LPS subgroups) at 10 μl/10 g of body weight. […] And then the absorbance of the Evans blue dye extracted in the supernatant was measured against formamide blank at 620 nm via standard curve method, and expressed as microgram of dye per 100 mg of wet lung weight. In addition, the concentration of albumin in BALF was measured at 628 nm using a spectrophotometer and an albumin measurement kit. The albumin concentration ratio assessed from BALF represented not only the albumin level but also the permeability of the pulmonary microvascular.

LPS-induced ALI mice [2] = assay: LPS-induced ALI model: BALF cell counting; assay type: in vivo, Balb/c mice
Procedure: Specific pathogen-free (SPF) Balb/c mice (♂/♀; 20-26 g; 8 weeks old) were purchased from Shanghai SIPPR-BK Experimental Animal Co., Ltd. Mice were kept in an isolated ventilated cage in an environment of 40-60% humidity, 24±2° C., and 12 hrs/12 hrs dark-light cycle, and had free access to food and water. The method for preparing the LPS-induced ALI model was simply described as follows. The mice were randomly divided into a control group (12 mice) and an LPS group (48 mice). The LPS group (48 mice) was further divided into four subgroups (12 mice in each subgroup). […] 24 hrs after LPS challenge, the oxygen saturation (SO2) of all mice was measured by a Moor VMS-OXY™ instrument which measured SO2 (%) in the microcirculation at the wavelength range of 500 to 650 nm. […]
The mice were euthanized to expose the trachea, and then the right lungs were lavaged three times with 0.4 mL/time of sterile normal saline containing bovine serum albumin (BSA) and 5000 IU/L heparin to collect the BALF via tracheal tube. […] The removed lung tissues were weighted after aspirating the surface blood, and the lung weight coefficient was calculated. The lung weight coefficient was an indicator of pulmonary edema, and it was measured by dividing the individual lung weight of each mouse by its total body weight.

LPS-induced ALI mice [3] = assay: LPS-induced ALI model: albumin in BALF; assay type: in vivo, Balb/c mice; settings: CT-NA 10 mg/kg (P<0.05) and 30 mg/kg (P<0.01), Dex 1 mg/kg (P<0.01); 24 hrs after LPS
Procedure: as §1

CN([C@@H]1CCc2c(CC(=O)[O-])c3cccnc3n2C1)S(=O)(=O)c1ccc(F)cc1.[Na+] [Sodium salt hydrate]
cytotoxicity (MTT), LPS plus CT-NA (RAW264.7 macrophages; LPS (100 ng/ml) plus CT-NA up to 100 μM): non-toxic
cytotoxicity (MTT), PGD2 plus CT-NA (RAW264.7 macrophages; PGD2 (10 μM) plus CT-NA up to 100 μM): non-toxic
LPS-induced pulmonary vascular leakage and extravasation of Evans Blue dye (LPS-induced ALI mice [1]): significantly reduced
BALF cell infiltration, performance compared with Dex (LPS-induced ALI mice [2]; CT-NA 30 mg/kg versus 1 mg/kg Dex): essentially same performance as that of 1 mg/kg Dex
LPS-induced increase of total cells, neutrophils and macrophages in BALF (LPS-induced ALI mice [2]; CT-NA 10 and 30 mg/kg intragastric 1 h before and 12 hrs after LPS, BALF 24 hrs after LPS, P<0.01): significantly and dose-dependently attenuated
albumin content in BALF (LPS-induced ALI mice [3]): considerably reduced
